# In patent publication US6492330B1, “Antiangiogenic drugs” (National Institute of Immunology, priority 1996, dated 2002):
# Non-standard residues stand in square brackets, D forms with d. No end group written: not given here. dPhe(4-Cl) = N[C@H](Cc1ccc(Cl)cc1)C(=O)O; Aib = CC(C)(N)C(=O)O
# How the values were obtained:
# Type in all cases: cell-based
# [1] = test system: endothelial cells ECV.304; experiment: Migration assay across 8 μm polycarbonate filter transwell inserts; conditions: for Percent inhibition in migration: N = 10^−8 M for VIP2, BOM1, SP1, VIP3, SOM2, 10^−7M for VIP1, 10^−9M for SOM1, 24 hours; for PERCENT INHIBITION MIGRATION: analog at optimum concentration −8M, 24 hours (Table 4)
# Description: Polycarbonate filter transwell inserts (24 well size) with 8 μm pores (Nunc, Denmark) were used for the migration assay. ECV304 (10^4 cells/200 ul DMEM containing 0.1% BSA) was added to the upper chamber. The lower chamber contained 600 ul of DMEM with 0.1% BSA. Individual peptides of the composition MuJ-7 at six different concentrations each of N/100, N/10, N, 10N, 100N and 1000N were added directly to the upper well and the plate incubated at 37° C. for 24 hours. The cells migrated to the lower chamber were viewed randomly at five different phase-contrast microscopic fields and the total number of cells counted using Video Pro 32 Image Analysis system. Percent inhibition in migration was determined with reference to the Control. Similarly, […] different concentrations of N/100, N/10, N, 10N, 100N and 1000N of MuJ-7 were added directly to the upper well and the plate incubated at 37° C. for 24 hours. The cells migrated to the lower chamber were counted as described above.
# Polycarbonate filter trasnwell inserts (24 well size) with 8 μm pores (Nuno, Denmark) were used for the migration assay. ECV304 (10^4 cells/200 ul DMEM containing 0.1% BSA) was added to the upper chamber. The lower chamber contained 600 ul of DMEM with 0.1% BSA. […] The sequence of each of the peptides added are described above. The cells migrated to the lower chamber were viewed randomly at five different phase-contrast microscopic fields and the total number of cells counted using Video Pro 32 Image Analysis system. Percent inhibition in migration was determined with reference to Control. […]
# ECV.304 cells = experiment: MTT assay, inhibition of proliferation of endothelial cells ECV.304; conditions: for Percent Inhibition Proliferation: 72 hours (Table 1); for PERCENT INHIBITION OF PROLIFERATION: 72 hours (Table 2)
# Description: (§1) 150 μl of medium was added to the wells of a 96-well tissue culture plate (Nunc, Denmark) followed by 30 μl of cell suspension. The plate was left in incubator (37° C., 5% CO2) overnight. Each of the seven peptides of the combination MuJ-7 were added at three molar concentrations of 10^−7M, 10^−8M and 10^−9M. 20 μl of MuJ-7 at three concentrations of N/10, N and 10N was added to marked wells of the 96-well plate. The value of N for each of the individual peptides was 10^−8M for VIP2, BOM1, SP1, VIP3, and SOM2 and 10^−7M for VIP1, and 10^−9M for SOM1. Each concentration was plated in triplicate. 20 μl of medium alone was added to control wells while wells without cells served as blanks. A total volume of 200 μl was ensured in each well and the plate was left in an incubator (37° C., 5% CO2). After 72 hours of incubation an MTT assay was performed and percentage inhibition in proliferation of treated cells was calculated with respect to control cells.
# 150 μl of medium was added to the wells of a 96-well tissue culture plate (Nunc, Denmark) followed by 30 μl of cell suspension. The plate was left in incubator (37° C., 5% CO2) overnight. Novel peptides shown below were incubated with cells at concentration range of 10^−7 to 10^−9 M (except DT71 at concentration range 10^−8 to 10^−10 M). Each concentration was plated in triplicates. 20 μl of medium alone was added to control wells while wells without cells served as blanks. A total volume of 200 μl was ensured in each well and plate was left in incubator (37° C., 5% CO2). After 72 hours of incubation an MTT assay was performed and percentage inhibition in proliferation of treated cells was calculated with respect to control cells.
# EaHy.926 = experiment: MTT assay, inhibition of proliferation of endothelial cells EaHy.926; conditions: 72 hours
# Description: as §1
# ECV304 = experiment: Tube-like-structure (TLS) formation on Matrigel; conditions: 24 hours; for Percent inhibition in TLS activity (TLS length): N = 10^−8 M for VIP2, BOM1, SP1, VIP3, SOM2, 10^−7M for VIP1, 10^−9M for SOM1; for INHIBITION OF TUBE LENGTH: peptide −8M
# Description: Matrigel (350 ul) was placed into each well of a 24-well culture plate at 4° C. and was allowed to polymerize by incubation at 37° C. for 30 min. ECV304 (1.5×10^4) were seeded on the Matrigel in 500 ul DMEM supplemented with 10% FBS. MuJ-7 at four different concentrations of 0.25×, 0.5×, ×, & 5.0× were added and. the plate incubated at 37° C. for 24 hour. “×” denotes normal concentration of MuJ-7 where molar concentration of individual peptides was 10^−8 M for VIP2, BOM1, SP1, VIP3 and SOM2 and 10^−7 M for VIP1 and 10^−9 M for SOM1. […] Percent inhibition in tube area was determined with reference to untreated cells.
# Matrigel (350 ul) was placed into each well of a 24-well culture plate at 4° C. and was allowed to polymerize by incubation at 37° C. for 30 min. ECV304 (1.5×10^4) were seeded on the Matrigel in 500 ul DMEM supplemented with 10% FBS. […] Percent inhibition in tube length was determined with reference to untreated cells.
# Matrigel (350 ul) was placed into each well of a 24-well culture plate at 4° C. and was allowed to polymerize by incubation at 37° C. for 30 min. ECV304 (1.5×10^4) were seeded on the Matrigel in 500 ul DMEM supplemented with 10% FBS. Individual peptides of the composition MuJ-7 at three different concentrations each of N/10, N, and 10N were added and the plate incubated at 37° C. for 24 hours. […] Percent inhibition in tube length was determined with reference to Control. Similarly, three different concentrations of N/10, N, and 10N of MuJ-7 were added to the well and the plate incubated at 37° C. for 24 hours. Percent inhibition in tube length was determined with reference to Control as described previously (Table 10).
Substance,Percent inhibition in migration ([1]; 10N),Percent inhibition in migration ([1]; 100N),Percent inhibition in migration ([1]; 1000N),Percent inhibition in migration ([1]; N/10),Percent inhibition in migration ([1]; N/100),Percent inhibition in migration ([1]; N),"Percent Inhibition Proliferation (ECV.304 cells; ECV.304, peptide 10^−7M)","Percent Inhibition Proliferation (ECV.304 cells; ECV.304, peptide 10^−8M)","Percent Inhibition Proliferation (ECV.304 cells; ECV.304, peptide 10^−9M)","Percent Inhibition Proliferation (EaHy.926; EaHy.926, peptide 10^−7M)","Percent Inhibition Proliferation (EaHy.926; EaHy.926, peptide 10^−8M)","Percent Inhibition Proliferation (EaHy.926; EaHy.926, peptide 10^−9M)",Percent inhibition in TLS activity (TLS length) (ECV304; 10N),Percent inhibition in TLS activity (TLS length) (ECV304; N/10),Percent inhibition in TLS activity (TLS length) (ECV304; N),PERCENT INHIBITION MIGRATION [1],"PERCENT INHIBITION OF PROLIFERATION (ECV.304 cells; ECV304, 10^−7M)","PERCENT INHIBITION OF PROLIFERATION (ECV.304 cells; ECV304, 10^−8M)","PERCENT INHIBITION OF PROLIFERATION (ECV.304 cells; ECV304, 10^−9M)",INHIBITION OF TUBE LENGTH (ECV304)
D-Phe-Cys-Tyr-D-Trp-Om-Thr-Pen-Thr-NH2 [SOM1],88.75%,73.73%,25.00%,78.50%,84.27%,88.11%,20%,20%,19%,36%,36%,22%,,,,,,,,
His-Ser-Asp-Ala-Val-4-Cl-D-Phe-Thr-Asp-Asn-Tyr-Thr-Arg-Leu-Arg-Lys-Gln-Leu-Ala-Val-Lys-Lys-Tyr-Leu-Asn-Ser-Ile-Leu-Asn-NH2 (HSDAV[dPhe(4-Cl)]TDNYTRLRKQLAVKKYLNSILN-NH2; N-terminus assumed; SMILES CC[C@H](C)[C@H](NC(=O)[C@H](CO)NC(=O)[C@H](CC(N)=O)NC(=O)[C@H](CC(C)C)NC(=O)[C@H](Cc1ccc(O)cc1)NC(=O)[C@H](CCCCN)NC(=O)[C@H](CCCCN)NC(=O)[C@@H](NC(=O)[C@H](C)NC(=O)[C@H](CC(C)C)NC(=O)[C@H](CCC(N)=O)NC(=O)[C@H](CCCCN)NC(=O)[C@H](CCCNC(=N)N)NC(=O)[C@H](CC(C)C)NC(=O)[C@H](CCCNC(=N)N)NC(=O)[C@@H](NC(=O)[C@H](Cc1ccc(O)cc1)NC(=O)[C@H](CC(N)=O)NC(=O)[C@H](CC(=O)O)NC(=O)[C@@H](NC(=O)[C@@H](Cc1ccc(Cl)cc1)NC(=O)[C@@H](NC(=O)[C@H](C)NC(=O)[C@H](CC(=O)O)NC(=O)[C@H](CO)NC(=O)[C@@H](N)Cc1c[nH]cn1)C(C)C)[C@@H](C)O)[C@@H](C)O)C(C)C)C(=O)N[C@@H](CC(C)C)C(=O)N[C@@H](CC(N)=O)C(N)=O) [VIP3],23.90%,11.62%,0.00%,32.80%,0.00%,92.45%,21%,25%,22%,21%,9%,24%,,,,,,,,
KPRRPYTDNYTRLRKQMAVKKYLNSILN-NH2 [VIP1],62.60%,66.52%,0.00%,52.60%,37.53%,69.40%,15%,17%,16%,25%,24%,23%,,,,,,,,
LMYPTYLK [VIP2],88.15%,92.90%,0.00%,91.75%,0.00%,89.05%,24%,25%,22%,32%,28%,42%,3.3%,0.0%,1.0%,,,,,
Leu-Met-Tyr-Pro-Thr-Tyr-D-Leu-Lys-OH (LMYPTY[dL]K-OH; N-terminus assumed; SMILES CSCC[C@H](NC(=O)[C@@H](N)CC(C)C)C(=O)N[C@@H](Cc1ccc(O)cc1)C(=O)N1CCC[C@H]1C(=O)N[C@H](C(=O)N[C@@H](Cc1ccc(O)cc1)C(=O)N[C@H](CC(C)C)C(=O)N[C@@H](CCCCN)C(=O)O)[C@@H](C)O) [DT-14],,,,,,,,,,,,,,,,77.3%,17.0%,6.0%,20.5%,24.3%
[dF]QWAV[Aib]HI-NH2 [DT-27],,,,,,,,,,,,,,,,0%,14.3%,11.9%,6.7%,29.7%
[dF]QWAV[Aib]HL-NH2 [DT-24],,,,,,,,,,,,,,,,0%,6.4%,9.8%,10.7%,16.2%
[dL]MQWF[Aib]-NH2 [DT-33],,,,,,,,,,,,,,,,41.4%,8.7%,15.8%,13.9%,13.5%
[dR]PKP[Aib]Q[dW]F[dW][Aib]L-NH2 [DT-34],,,,,,,,,,,,,,,,53.6%,12.1%,15.6%,14.3%,0%
